The nature of data set [1]: Saturation magnetization measurement (magnetic property evaluation device MPMS7). It counts as physicochemical. The method, then: The measurement was conducted based on a magnetic property evaluation device MPMS7 manufactured by Kantum.
The nature of data set [2]: Particle diameter of single crystal by transmission electron microscope. To be noted: single crystal of the salen complex having the highest ferromagnetic property; TEM, 140 samples. It counts as physicochemical.
Method: A used device, conditions, and so on are as follows. Device: transmission electron microscope (H-7100FA manufactured by Hitachi) Conditions: acceleration voltage 100 kV Sample adjustment: dispersion method (after the salen complex was ground with a mortar, pure water was added to the ground salen complex, which was then dispersed in a grid by TEM) Grain size distribution measurement software: Image-Pro plus (Media cybermetrics, MD, U.S.A.) Measured target: traced images of the iron-salen complex in TEM photographs Number of samples: 140

With `Oc1ccccc1C=NCCN=Cc1ccccc1O.[Fe+2]` [iron-salen complex, N,N′-bis(salicylidene)ethylenediamine iron(II)], the saturation magnetization was 1.25 emu/g in data set [1] (crystals having the highest magnetic property among 5-6 iron-salen complex preparations) and 0.02 emu/g in data set [1] (crystals having the lowest magnetic property among those complexes). The compound also gave an average particle diameter in data set [2] of 450 nm.

These data come from patent US9469668B2, “Magnetic substance” (IHI CORPORATION, priority 2013, dated 2016).
